Experimental data from US20040254162A1, “Oxazolidinone derivatives as antimicrobials” (priority 2001, published 2004).
Converted amounts (≈) assume the structure as drawn. “And” between values parts separate entries of the source, which are not always exact repeats. Equal entries are not always repeated. Where two headings read alike, the source gives them in different places.

Columns and labels:
[1] = system: P. acnes; test: Agar dilution MIC, anaerobes; type: cell-based; details: single isolates, anaerobic agar dilution
[2] = system: Fusobacterium nucleatum; test: Agar dilution MIC, anaerobes; type: cell-based; details: single isolates, anaerobic agar dilution
[3] = system: Peptostreptococcus prevotii; test: Agar dilution MIC, anaerobes; type: cell-based; details: single isolates, anaerobic agar dilution
[4] = system: Clostridium camis; test: Agar dilution MIC, anaerobes; type: cell-based; details: single isolates, anaerobic agar dilution
[5] = system: Bacteroides fragilis; test: Agar dilution MIC, anaerobes; type: cell-based; details: single isolates, anaerobic agar dilution
[6] = system: Fusobacterium necrogenes; test: Agar dilution MIC, anaerobes; type: cell-based; details: single isolate, anaerobic agar dilution
[7] = system: Fusobacterium montiferum; test: Agar dilution MIC, anaerobes; type: cell-based; details: single isolates, anaerobic agar dilution
[8] = system: Porphyromonas gingivalis; test: Agar dilution MIC, anaerobes; type: cell-based; details: single isolate, anaerobic agar dilution
[9] = system: Peptostreptococcus asaccharolyticus; test: Agar dilution MIC, anaerobes; type: cell-based; details: single isolates, anaerobic agar dilution
[10] = system: Eubacterium leutum; test: Agar dilution MIC, anaerobes; type: cell-based; details: single isolates, anaerobic agar dilution
[11] = system: Porphyromonas asaccharolytica; test: Agar dilution MIC, anaerobes; type: cell-based; details: single isolate, anaerobic agar dilution
[12] = system: Peptostreptococcus tetradius; test: Agar dilution MIC, anaerobes; type: cell-based; details: single isolates, anaerobic agar dilution
[13] = system: Prevotella intermedia; test: Agar dilution MIC, anaerobes; type: cell-based; details: single isolates, anaerobic agar dilution
[14] = system: Prevotella (Bacteroides) disiens; test: Agar dilution MIC, anaerobes; type: cell-based; details: single isolates, anaerobic agar dilution
[15] = system: Mycobacterium avium intracellulare; test: Agar dilution method, mycobacteria; type: cell-based; details: for MIC50 / MIC90: Mycobacterium avium, 504 h, Middlebrook 7H10 agar, 21 days; for MIC50: read-out: MIC50; for MIC90: read-out: MIC90
[16] = system: Mycobacterium tuberculosis; test: microbe, parasite or virus in culture; details: 504 h
[17] = system: Mycobacterium tuberculosis
[18] = system: Fusobacterium varium; test: Agar dilution MIC, anaerobes; type: cell-based; details: single isolates, anaerobic agar dilution
[19] = system: Prevotella bivia; test: Agar dilution MIC, anaerobes; type: cell-based; details: single isolate, anaerobic agar dilution
[20] = system: Peptostreptococcus magnum; test: Agar dilution MIC, anaerobes; type: cell-based; details: single isolates, anaerobic agar dilution; listed as Ax/clav
[21] = system: Peptostreptococcus micros; test: Agar dilution MIC, anaerobes; type: cell-based; details: single isolates, anaerobic agar dilution
[22] = system: Clostridium difficile; test: Agar dilution MIC, anaerobes; type: cell-based; details: single isolates, anaerobic agar dilution
[23] = system: anaerobic bacteria; test: Agar dilution method for anaerobic bacteria, summary; type: cell-based; details: anaerobes; for MIC50 / MIC90: Wilkins Chalgren agar, 48 hour
[24] = system: Prevotella melaninogenica; test: Agar dilution MIC, anaerobes; type: cell-based; details: single isolates, anaerobic agar dilution
[25] = system: Clostridium perfringens; test: microbe, parasite or virus in culture; type: cell-based; details: single isolates, anaerobic agar dilution

| Compound | MIC P. acnes [1] | MIC Fusobacterium nucleatum [2] | MIC Bacteroides fragilis [5] | MIC Fusobacterium montiferum [7] | MIC Peptostreptococcus asaccharolyticus [9] | MIC Prevotella (Bacteroides) disiens [14] | MIC50 [15] | MIC90 [15] | MIC50 [16] | MIC90 [16] | MIC Fusobacterium varium [18] | MIC Prevotella bivia [19] | MIC Clostridium difficile [22] | MIC Clostridium camis [4] | MIC Fusobacterium necrogenes [6] | MIC Porphyromonas gingivalis [8] | MIC Porphyromonas asaccharolytica [11] | Geometric Mean [23] | MIC Range [23] | MIC50 [23] | further results |
| --- | --- | --- | --- | --- | --- | --- | --- | --- | --- | --- | --- | --- | --- | --- | --- | --- | --- | --- | --- | --- | --- |
| COc1c(N2C[C@@H]3CCCN[C@@H]3C2)c(F)cc2c(=O)c(C(=O)O)cn(C3CC3)c12 [Moxifloxacin] | 0.125 µg/mL (≈ 0.311 µM) | 0.25 µg/mL (≈ 0.623 µM) | 0.5 µg/mL (≈ 1.25 µM) | 0.5 µg/mL (≈ 1.25 µM) | 0.25 µg/mL (≈ 0.623 µM) | 0.5 µg/mL (≈ 1.25 µM) |  |  |  |  |  |  |  |  |  |  |  |  |  |  | MIC ([1]; Cutibacterium acnes, read-out: MIC P. acnes): 0.25 µg/mL (≈ 0.623 µM); MIC ([2]; Fusobacterium nucleatum, read-out: MIC Fusobacterium nucleatum): 0.125 µg/mL (≈ 0.311 µM); MIC ([3]; Anaerococcus prevotii, read-out: MIC Peptostreptococcus prevotii): 0.25 µg/mL (≈ 0.623 µM); MIC ([4]; Clostridium, read-out: MIC Clostridium camis): 0.25 µg/mL (≈ 0.623 µM); MIC ([5]; Bacteroides fragilis, read-out: MIC Bacteroides fragilis): 0.25 µg/mL (≈ 0.623 µM); MIC ([6]; Fusobacterium necrogenes, read-out: MIC Fusobacterium necrogenes): 1 µg/mL (≈ 2.49 µM); MIC ([7]; Fusobacterium, read-out: MIC Fusobacterium montiferum): 0.25 µg/mL (≈ 0.623 µM); MIC ([8]; Porphyromonas gingivalis, read-out: MIC Porphyromonas gingivalis): 0.03 µg/mL (≈ 0.0747 µM); MIC ([9]; Peptoniphilus asaccharolyticus): 0.125 µg/mL (≈ 0.311 µM); MIC ([10]; Eubacterium, read-out: MIC Eubacterium leutum): 0.5 µg/mL (≈ 1.25 µM); MIC ([11]; Porphyromonas asaccharolytica, read-out: MIC Porphyromonas asaccharolytica): 0.5 µg/mL (≈ 1.25 µM); MIC ([12]; Anaerococcus tetradius, read-out: MIC Peptostreptococcus tetradius): 0.5 µg/mL (≈ 1.25 µM); MIC ([13]; Prevotella intermedia, read-out: MIC Prevotella intermedia): 0.5 µg/mL (≈ 1.25 µM); MIC ([14]; read-out: MIC Prevotella (Bacteroides) disiens): 0.25 µg/mL (≈ 0.623 µM) |
| CO[C@H]1/C=C/O[C@@]2(C)Oc3c(C)c(O)c4c(O)c(c(/C=N/N5CCN(C)CC5)c(O)c4c3C2=O)NC(=O)/C(C)=C\C=C\[C@H](C)[C@H](O)[C@@H](C)[C@@H](O)[C@@H](C)[C@H](OC(C)=O)[C@@H]1C [Rifampicin] |  |  |  |  |  |  | 1 µg/mL (≈ 1.22 µM) | 32 µg/mL (≈ 38.9 µM) | 64 µg/mL (≈ 77.8 µM) | 64 µg/mL (≈ 77.8 µM) |  |  |  |  |  |  |  |  |  |  | G.M. [15]: 1.999 µg/mL; G.M. [17]: 6.35 µg/mL |
| C[C@@H]1CN(c2c(F)c(N)c3c(=O)c(C(=O)O)cn(C4CC4)c3c2F)C[C@H](C)N1 [Sparfloxacin] |  |  |  |  |  |  | 4 µg/mL (≈ 10.2 µM) | 8 µg/mL (≈ 20.4 µM) | 1 µg/mL (≈ 2.55 µM) | 2 µg/mL (≈ 5.1 µM) |  |  |  |  |  |  |  |  |  |  | G.M. ([15]; geometric mean MIC): 3.526 µg/mL; G.M. ([17]; geometric mean MIC): 0.53 µg/mL |
| Amox + clav | 0.25 µg/mL | <=.125 μg/ml |  |  | 0.25 µg/mL |  |  |  |  |  | 1 µg/mL | <=.125 μg/ml | 1 µg/mL | <=.125 μg/ml | 0.5 µg/mL | <=.125 μg/ml | <=.125 μg/ml | 0.423 µg/mL | 0.062 to 32 µg/mL | 0.25 µg/mL | MIC Peptostreptococcus prevotii [3]: <=.125 μg/ml; MIC Peptostreptococcus magnum [20]: 0.25 µg/mL and 0.5 µg/mL; MIC Peptostreptococcus micros [21]: <=.125 μg/ml; MIC Eubacterium leutum [10]: 1 µg/mL; MIC90 [23]: 8 µg/mL; MIC Prevotella melaninogenica [24]: 2 µg/mL; MIC Clostridium perfringens [25]: <=.125 μg/ml; MIC Peptostreptococcus tetradius [12]: <=.125 μg/ml; MIC Prevotella intermedia [13]: <=.125 μg/ml |
| Teicoplanin | 0.25 µg/mL | >16 µg/mL | >16 µg/mL | >16 µg/mL | 0.125 µg/mL | 16 µg/mL and >16 µg/mL |  |  |  |  | >16 µg/mL | 1 µg/mL | 0.25 µg/mL | <=.06 μg/ml | >16 µg/mL | <=.06 μg/ml | 0.125 µg/mL | 2.04 µg/mL | 0.03 to 32 µg/mL | 2 µg/mL | MIC90 [23]: 32 µg/mL; MIC Prevotella melaninogenica [24]: 2 µg/mL and 4 µg/mL; MIC Clostridium perfringens [25]: <=.06 μg/ml; MIC Prevotella intermedia [13]: 0.5 µg/mL |
